Measurements from the supplement of paper PMC10307832.

Tests used:
Test in all cases: relative viability (nuclei count vs DMSO), 5 days (fraction); higher = more cells survive
Dabrafenib + Foretinib = compound: CC(C)(C)c1nc(-c2cccc(NS(=O)(=O)c3c(F)cccc3F)c2F)c(-c2ccnc(N)n2)s1 [Dabrafenib] + COc1cc2c(Oc3ccc(NC(=O)C4(C(=O)Nc5ccc(F)cc5)CC4)cc3F)ccnc2cc1OCCCN1CCOCC1 [Foretinib] (partner 0.25 µM)
Outline: (§1)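 Nuclei were stained with Hoechst during a one-step fixation (final 0.05% Triton X-100, 1% formaldehyde, 1 ug/ml Hoechst) carried out 5 days after dosing, then counted on 4× images. The cells, lung cancer lines in 1536-well plates, had been dosed by pin tool the day after seeding with one drug alone or a fixed anchor-drug dose plus five library-drug doses (not always all listed) in √10 steps. Relative viability is the nuclei count in treated wells divided by that in vehicle wells, and each value is the median of duplicate plates.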

VX-702 + OSI-027 = compound: NC(=O)c1ccc(N(C(N)=O)c2c(F)cccc2F)nc1-c1ccc(F)cc1F [VX-702] + COc1cccc2cc(-c3nc([C@H]4CC[C@H](C(=O)O)CC4)n4ncnc(N)c34)[nH]c12 [OSI-027] (partner 0.5 µM)
Outline: as §1

VX-702 + Lapatinib = compound: NC(=O)c1ccc(N(C(N)=O)c2c(F)cccc2F)nc1-c1ccc(F)cc1F [VX-702] + CS(=O)(=O)CCNCc1ccc(-c2ccc3ncnc(Nc4ccc(OCc5cccc(F)c5)c(Cl)c4)c3c2)o1 [Lapatinib] (partner 2 µM)
Outline: as §1

VX-702 + Pemetrexed = compound: NC(=O)c1ccc(N(C(N)=O)c2c(F)cccc2F)nc1-c1ccc(F)cc1F [VX-702] + Nc1nc2[nH]cc(CCc3ccc(C(=O)N[C@@H](CCC(=O)O)C(=O)O)cc3)c2c(=O)[nH]1 [Pemetrexed] (partner 0.2 µM)
Outline: as §1

Cell Line	relative viability (Dabrafenib + Foretinib; first compound 0.003 µM)	relative viability (Dabrafenib + Foretinib; first compound 0.009487 µM)	relative viability (Dabrafenib + Foretinib; first compound 0.03 µM)	relative viability (Dabrafenib + Foretinib; first compound 0.09487 µM)	relative viability (Dabrafenib + Foretinib; first compound 0.3 µM)	relative viability (VX-702 + OSI-027; first compound 0.02 µM)	relative viability (VX-702 + OSI-027; first compound 0.2 µM)	relative viability (VX-702 + OSI-027; first compound 0.6325 µM)	relative viability (VX-702 + OSI-027; first compound 2 µM)	relative viability (VX-702 + Lapatinib; first compound 0.02 µM)	relative viability (VX-702 + Lapatinib; first compound 0.2 µM)	relative viability (VX-702 + Lapatinib; first compound 0.6325 µM)	relative viability (VX-702 + Lapatinib; first compound 2 µM)	relative viability (VX-702 + Pemetrexed; first compound 0.02 µM)	relative viability (VX-702 + Pemetrexed; first compound 0.2 µM)	relative viability (VX-702 + Pemetrexed; first compound 0.6325 µM)	relative viability (VX-702 + Pemetrexed; first compound 2 µM)
201T	1.11	1.2	1.12	1.14	1.26	0.732	0.499	0.69	0.735	1.06	0.991	1.12	1.09	0.36	0.331	0.339	0.34
A549	0.979	0.988	0.911	0.988	0.975					1.05	0.922	0.943	1.03				
A-427		1.24	1.14	0.87	1.01	0.4	0.447	0.427	0.352	1.17	0.968	1.07	1.16	1.06	0.993	0.986	1.06
ABC-1	1.03	1.09	0.866	1.02	1.26	0.47	0.578	0.509	0.615	0.972	0.98		1.18				
BEN		0.699		0.569	0.713	0.31	0.298	0.315	0.328	0.726	0.662	0.539	0.926	0.825	0.689	0.623	0.86
CAL-12T	1.07	1.09	1.11	1.11	1.44	0.624	0.715	0.661	0.506	0.61	0.603	0.611	0.664	0.982	1.22	1.14	1.29
COR-L23	0.947	0.982	0.873	0.882	0.935	0.989	0.75	0.766	0.961	0.999	0.862	0.914	1.26	0.203	0.183	0.21	0.23
COR-L 105	0.971	1.32	1.18	1.11	1.41	0.661	0.679	0.688	0.517	0.332	0.336	0.338	0.326	1.06	1	1.14	1.25
Calu-6	0.878	0.964	0.84	0.84	0.654					1.07	1.1	1.13	1.25				
ChaGo-K-1	1.05	0.902	0.906	0.883	0.95	0.641	0.624	0.567	0.566					0.249	0.257	0.269	0.26
EBC-1	0.102	0.0889	0.103	0.0949	0.108					0.228	0.175	0.188	0.188				
EKVX	0.457	0.603	0.793	0.886	0.987	0.811	0.607	0.675	0.668	0.215	0.22	0.226	0.127	0.463	0.345	0.38	0.431
EMC-BAC-2	1.01	1.01	0.766	0.924	1.06	0.372	0.404	0.355	0.313	0.924	0.947	0.906	0.883	0.472	0.436	0.407	0.416
EPLC-272H	0.671	0.811	0.619	0.587	0.738	0.298	0.304	0.279	0.248	1.09	0.751	1.1	1.59	0.354	0.402	0.318	0.403
H3255	0.688	0.897	1.09	0.667	0.839	0.666	0.684	0.541	0.63	0.24	0.254	0.26	0.241	0.565	0.612	0.551	0.599
HARA	0.907	0.906		0.78	0.972	0.458	0.412	0.446	0.479	0.653	0.69	0.91	0.825	0.235		0.277	0.256
HCC-15	0.944	1.07	1.08	0.852	1.03	0.659	0.661	0.69	0.702	0.837	0.838	0.857	0.928	0.223	0.22	0.227	0.248
HCC-44						0.48	0.433	0.491	0.485	1.03	1.03	0.982	1.05	0.615	0.652	0.653	0.678
HCC-78		0.633	0.537	0.632	0.581	0.364	0.358	0.311	0.32	0.871	0.456	0.603	0.98	0.874	0.883	0.901	0.889
HCC-366	0.894	0.944	0.812	0.875	0.891	1.09	0.899	0.932	0.107	1.03	1.15	1.23	0.791	0.171	0.149	0.203	0.165
HCC-827	1.11	1.04	0.876		1.03	0.828	0.839	0.688	0.273	0.181	0.191	0.19	0.152	0.244	0.252	0.287	0.18
